Tests used:
Type in all cases: in vivo
[1] = system: chickweed (common chickweed, Stellaria media); assay: Test C postemergence: chickweed
Outline: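 Response values are visual ratings, 0 (no effect) to 100 (complete control), made by comparison with untreated controls 13 to 15 days after postemergence treatment of greenhouse-grown potted plants that were 2 to 18 cm high at spraying.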

[2] = system: wheat (Triticum aestivum); assay: Test A pre-/postemergence: wheat
Outline: (§1)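 Seeds were sown in loam/sand blend and sprayed preemergence (directed soil spray) and, simultaneously, postemergence at 2–10 cm, one- to two-leaf stage, using compounds in non-phytotoxic solvent with surfactant. After ~10 days in greenhouse, injury was rated visually versus untreated controls, 0 (no effect) to 100 (complete control).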

[3] = system: morningglory (Ipomoea coccinea); assay: Test C pre-/postemergence: morningglory
Outline: (§2)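 Visual injury scored 0–100 (100 = complete control) against untreated controls after 13–15 greenhouse days. Surfactant-containing solvent formulations applied either to soil after sowing (loam/sand) or over 1- to 4-leaf plants, 2–18 cm tall.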

[4] = system: foxtail, giant (giant foxtail, Setaria faberii); assay: Test A pre-/postemergence: foxtail, giant; conditions: for Foxtail, Giant plant response rating: Postemergence; for Plant response rating, Foxtail, Giant: Preemergence
Outline: as §1

[5] = system: ragweed (common ragweed, Ambrosia elation); assay: Test C pre-/postemergence: ragweed
Outline: as §2

[6] = system: velvetleaf (Abutilon theophrasti); assay: Test A pre-/postemergence: velvetleaf
Outline: as §1

[7] = system: velvetleaf (Abutilon theophrasti); assay: Test C pre-/postemergence: velvetleaf
Outline: as §2

[8] = system: morningglory (Ipomoea spp.); assay: Test A pre-/postemergence: morningglory
Outline: as §1

corn (Zea mays) = assay: Test C pre-/postemergence: corn
Outline: as §2

kochia (Kochia scoparia) = assay: Test C pre-/postemergence: kochia
Outline: as §2

[9] = system: winter wheat (Triticum aestivum); assay: Test C pre-/postemergence: winter wheat
Outline: as §2

[10] = system: pigweed (Amaranthus retroflexus); assay: Test A pre-/postemergence: pigweed
Outline: as §1

[11] = Postemergence, 125 g ai/ha, 0 to 100 scale, 0 is no effect, 100 is complete control
[12] = Postemergence, 500 g ai/ha, visual rating on 0 to 100 scale (0 no effect, 100 complete control), approximately ten days
[13] = Preemergence, 125 g ai/ha, 0 to 100 scale where 0 is no effect and 100 is complete control
[14] = Preemergence, 500 g ai/ha, 0 to 100 scale (0 no effect, 100 complete control)
[15] = Postemergence, 31 g ai/ha, scale 0 to 100 (0 no effect, 100 complete control)
[16] = Postemergence, 62 g ai/ha, scale 0 to 100 (0 no effect, 100 complete control)
[17] = Postemergence, 125 g ai/ha, scale 0 to 100, 0 no effect, 100 complete control
[18] = Postemergence, 250 g ai/ha, scale 0 to 100
[19] = Preemergence, 31 g ai/ha, scale of 0 to 100, 0 is no effect, 100 is complete control
[20] = Preemergence, 62 g ai/ha, scale of 0 to 100, 0 is no effect, 100 is complete control
[21] = Preemergence, 125 g ai/ha, scale 0 to 100, 0 no effect, 100 complete control
[22] = Preemergence, 250 g ai/ha, scale 0 to 100, 0 no effect, 100 complete control

SMILES: Cc1nn(-c2ccc(F)c(F)c2)nc1Oc1ccnc(C(F)(F)F)c1 [Compound 145]
- Plant response rating, Chickweed ([1]; 31 g ai/ha, scale 0 to 100 (0 no effect, 100 complete control)): 75
- Plant response rating, Chickweed ([1]; 62 g ai/ha, scale 0 to 100 (0 no effect, 100 complete control)): 85
- Plant response rating, Chickweed ([1]; 125 g ai/ha, scale 0 to 100, 0 no effect, 100 complete control): 98
- Plant response rating, Chickweed ([1]; 250 g ai/ha, scale 0 to 100): 100
- Plant response rating, Wheat [2, 11]: 20
- Wheat plant response rating [2, 12]: 50
- Plant response rating, Wheat [2, 13]: 20
- Plant response rating, Wheat [2, 14]: 60
- Plant response rating, Morningglory [3, 15]: 90
- Plant response rating, Morningglory [3, 16]: 90
- Plant response rating, Morningglory [3, 17]: 95
- Plant response rating, Morningglory [3, 18]: 98
- Plant response rating, Morningglory [3, 19]: 15
- Plant response rating, Morningglory [3, 20]: 20
- Plant response rating, Morningglory [3, 21]: 70
- Plant response rating, Morningglory [3, 22]: 85
- Foxtail, Giant plant response rating ([4]; 125 g ai/ha, 0 to 100 scale, 0 is no effect, 100 is complete control): 90
- Foxtail, Giant plant response rating ([4]; 500 g ai/ha, visual rating on 0 to 100 scale (0 no effect, 100 complete control), approximately ten days): 100
- Plant response rating, Foxtail, Giant ([4]; 125 g ai/ha, 0 to 100 scale where 0 is no effect and 100 is complete control): 100
- Plant response rating, Foxtail, Giant ([4]; 500 g ai/ha, 0 to 100 scale (0 no effect, 100 complete control)): 100
- Plant response rating, Ragweed [5, 15]: 60
- Plant response rating, Ragweed [5, 17]: 70
- Plant response rating, Ragweed [5, 18]: 70
- Plant response rating, Ragweed [5, 19]: 0
- Plant response rating, Ragweed [5, 20]: 10
- Plant response rating, Ragweed [5, 21]: 40
- Plant response rating, Ragweed [5, 22]: 55
- Plant response rating, Velvetleaf [6, 11]: 100
- Velvetleaf plant response rating [6, 12]: 100
- Plant response rating, Velvetleaf [6, 13]: 50
- Plant response rating, Velvetleaf [6, 14]: 80
- Plant response rating, Velvetleaf [7, 15]: 35
- Plant response rating, Velvetleaf [7, 16]: 35
- Plant response rating, Velvetleaf [7, 17]: 50
- Plant response rating, Velvetleaf [7, 18]: 60
- Plant response rating, Velvetleaf [7, 19]: 0
- Plant response rating, Velvetleaf [7, 20]: 10
- Plant response rating, Velvetleaf [7, 21]: 75
- Plant response rating, Velvetleaf [7, 22]: 85
- Plant response rating, Morningglory [8, 11]: 100
- Morningglory plant response rating [8, 12]: 100
- Plant response rating, Morningglory [8, 13]: 10
- Plant response rating, Morningglory [8, 14]: 60
- Plant response rating, Corn (corn (Zea mays); [15]): 35
- Plant response rating, Corn (corn (Zea mays); [16]): 45
- Plant response rating, Corn (corn (Zea mays); [18]): 50
- Plant response rating, Corn (corn (Zea mays); [19]): 0
- Plant response rating, Corn (corn (Zea mays); [20]): 10
- Plant response rating, Corn (corn (Zea mays); [21]): 25
- Plant response rating, Corn (corn (Zea mays); [22]): 60
- Plant response rating, Kochia (kochia (Kochia scoparia); [15]): 85
- Plant response rating, Kochia (kochia (Kochia scoparia); [16]): 85
- Plant response rating, Kochia (kochia (Kochia scoparia); [17]): 90
- Plant response rating, Kochia (kochia (Kochia scoparia); [18]): 95
- Plant response rating, Kochia (kochia (Kochia scoparia); [19]): 50
- Plant response rating, Kochia (kochia (Kochia scoparia); [20]): 90
- Plant response rating, Kochia (kochia (Kochia scoparia); [21]): 98
- Plant response rating, Kochia (kochia (Kochia scoparia); [22]): 98
- Plant response rating, Wheat [9, 15]: 5
- Plant response rating, Wheat [9, 16]: 15
- Plant response rating, Wheat [9, 17]: 30
- Plant response rating, Wheat [9, 18]: 40
- Plant response rating, Wheat [9, 20]: 5
- Plant response rating, Wheat [9, 21]: 5
- Plant response rating, Wheat [9, 22]: 50
- Plant response rating, Pigweed [10, 11]: 100
- Pigweed plant response rating [10, 12]: 100
- Plant response rating, Pigweed [10, 13]: 100
- Plant response rating, Pigweed [10, 14]: 100

— US9302999B2, “Substituted triazoles as herbicides” (E. I. DU PONT DE NEMOURS AND COMPANY, priority 2012, dated 2016)
